Read-outs that look alike come from different tables or passages of the source.
Experiments:
Assay type in all cases: cell-based
SkMel28 = assay: MTT assay (anti-proliferative activity); settings: read-out: IC 50 SkMel28
Protocol: (§1) The MTT assay was used initially to determine the anti-proliferative activity of the test compounds. In the MTT assay a yellow thiazolyl blue tetrazolium bromide salt (MTT) is reduced, in metabolically active cells, to form insoluble purple formazan crystals which are solubilised by the addition of dimethyl sulphoxide (DMSO).
(§2) Wells containing medium only were used as blanks. Following the attachment period, cells were treated with appropriate drug concentrations (20 μl added per well). 40 mg/ml stock drug solutions, in DMSO, were stored at −20° C. and on the day of drug treatment working solutions of 4 mg/ml were prepared in medium which was further diluted to achieve final drug dilution volumes of 20 μl. Initial screening was determined over a concentration range of 1-200 μg/ml. […] Cells were exposed to drug for 96 h continual exposure (37° C., 5% CO2). Following the 96 h incubation, 50 μl MTT solution (1 g MTT/500 ml PBS) was added per well and the plates were further incubated for 4 h (37° C., 5% CO2). After incubation the MTT and medium was removed from the wells and 100 μl DMSO added per well. Plates were agitated on an orbital mixer platform (Stuart Scientific) for 10 minutes. Absorbance was measured at 570 nm on a Biotrak II (Amersham Bioscience) plate reader. IC50 values were calculated comparing control and drug treated cells.

MDA-MB-468 = assay: MTT assay (anti-proliferative activity); settings: read-out: IC 50 MDA-MB-468
Protocol: as §1, §2

MCF-7 = assay: MTT assay (anti-proliferative activity); settings: read-out: IC 50 MCF-7
Protocol: as §1, §2

MalMe3M = assay: MTT assay (anti-proliferative activity); settings: 96 h continual exposure, read-out: IC 50 MalMe3M
Protocol: as §1, §2

[1] = tested on: breast cancer (MDA-MB-468 and MCF-7 cell lines) and melanoma cell lines (MalMe3, SkMe128); assay: Cell cycle analysis by flow cytometry (propidium iodide); apoptosis as cells in sub G0/G1 (pre G0) peak; settings: following treatment with IC70 concentration of compound
Protocol: Assessment of cell cycle analysis was performed using propidium iodide staining of cells and subsequent analysis on a Beckton Dickinson flow cytometer. […] The following day the medium was removed and replaced with 5 ml medium per flask containing the appropriate drug concentrations to be tested. 40 mg/ml stock drug solutions in DMSO were stores at −20° C. and on the day off drug treatment working solutions of 4 mg/ml were prepared in medium from which the final drug dilutions were prepared. Cells were maintained in an incubator (37° C., 5% CO2) for up to 96 h post treatment. After 24, 48, 72 or 96 h time points the medium from each flask was collected, stored on ice, and the remaining cells in the flasks were trypsinised by aiding 1 ml trypsin-EDTA solution to each flask. Cells were replaced into the incubator for 10 min to allow them to detach from the plastic plate. The cells in each flask were collected by adding the appropriate medium removed from each flask back to the corresponding flask and then placing medium containing both the attached and floating cells into a 15 ml tube. Cells were centrifuged at 4° C. for 5 min at 1500 rpm and the supernatant removed from each tube. The remaining cells were washed twice in ice cold PBS and then fixed in ice cold methanol overnight at −20° C. On the day of analysis of cells each tube was centrifuged at 4° C. for 5 min at 1500 rpm and the methanol removed and the cells washed twice in ice cold PBS. 20 μl propidium iodide solution (1 mg/ml) and 20 μl RNase A (10 mg/ml solution) were added to 1 ml PBS per tube and the cells were incubated for 30 min at 37° C. Cells were analysed on the flow cytometer and cell cycle changes were assessed.

[2] = Homo sapiens, SK-MEL-28, 96 h continual exposure
[3] = Homo sapiens, MDA-MB-468, 96 h continual exposure
[4] = Homo sapiens, MCF7, 96 h continual exposure

SMILES | IC50 (SkMel28; 96 h continual exposure) [µM] | IC50 (MDA-MB-468; 96 h continual exposure) [µM] | IC50 (MCF-7; 96 h continual exposure) [µM] | IC50 (MalMe3M) [µM] | % Cells in Pre G0 phase of Cell Cycle [1] [%] | IC50 (SkMel28; [2]) [µM] | IC50 (MDA-MB-468; [3]) [µM] | IC50 (MCF-7; [4]) [µM] | IC50 (MalMe3M; Homo sapiens, Malme-3M) [µM]
CC1Cc2ccc(C(=O)Nc3ccccc3)c(O)c2C(=O)O1 (racemic) [ALM-45, Aniline Amide] | 172 | 10.1 | 26.9 | 33.6 | 6.4 | – | – | – | –
O=C(N[C@@H](Cc1ccccc1)C(=O)O)c1ccc2c(c1O)C(=O)OCC2 [ALM-70, L-Phenyl Alanine Amide of Compound ALM-68] | 42.2 | 1.4 | 8.4 | 18.3 | 32.7 | – | – | – | –
CC1Cc2ccc(C(=O)n3ccnc3)c(O)c2C(=O)O1 (racemic) [ALM-46, CDI derivative] | > 734 | 73.4 | > 734 | > 734 | – | – | – | – | –
CC1Cc2ccc(C(=O)NC(Cc3ccccc3)C(=O)OC(C)(C)C)c(O)c2C(=O)O1 (mixture of isomers) [ALM-53, L-Phenyl Alanine Tert-Butyl Ester Amide] | 70.5 | 2.3 | 9.4 | 11.7 | 8.9 | – | – | – | –
CCOC(=O)Oc1cccc2c1C(=O)OC(C)C2 (racemic) [ALM-16, Racemic Mellein Ethyl Carbonate] | 360 | 240 | 296 | 456 | – | – | – | – | –
CC1Cc2ccc(C(=O)OC3CCCCC3)c(O)c2C(=O)O1 (racemic) [ALM-38, Cyclohexyl Ester] | 131 | 131 | 98.6 | 131 | – | – | – | – | –
CC1Cc2ccc(C(=O)OC(C)(C)C)c(O)c2C(=O)O1 (racemic) [ALM-39, Tert-Butyl Ester] | 359 | 305 | 392 | 345 | – | – | – | – | –
CC1Cc2ccc(C(=O)Oc3ccccc3)c(O)c2C(=O)O1 (racemic) [ALM-37, Phenyl Ester] | 332 | 181 | 285 | 308 | – | – | – | – | –
CCCCCCCC/C=C\CCCCCCCCOC(=O)c1ccc2c(c1O)C(=O)OC(C)C2 (racemic) [ALM-42, Oleyl Ester] | > 423 | 317 | > 423 | > 423 | – | – | – | – | –
COC(=O)c1ccc2c(c1O)C(=O)OCC2 [ALM-68, 8-hydroxy-1-oxo-isochroman-7-carboxylic acid methyl ester] | – | – | – | – | – | 562 | 270 | 338 | 518
COc1cc2c(c(O)c1OC)C(=O)OC(C)C2 (racemic) [ALM-1, Racemic (±)—Kigelin] | – | – | – | – | – | 718 | 306 | 630 | 714
CC(C)(C)OC(=O)[C@H](Cc1ccccc1)NC(=O)c1ccc2c(c1O)C(=O)OC(C)(C)C2 [ALM-73, L-Phenyl Alanine Tert-Butyl Ester Amide of Compound ALM-71] | 13.7 | 9.1 | 14.8 | 9.1 | 25.3 | – | – | – | –
CC/C=C\C/C=C\C/C=C\CCCCCCCC(=O)Oc1c(OC)c(OC)cc2c1C(=O)OC(C)C2 (racemic) [ALM-4, Racemic Kigelin α-Linolenyl Ester] | > 401 | 90.2 | 60.2 | 321 | – | – | – | – | –
CC1Cc2c([N+](=O)[O-])cc([N+](=O)[O-])c(O)c2C(=O)O1 (racemic) [ALM-30, Racemic 2,4-dinitromellein] | – | – | – | – | – | 179 | 138 | 130 | 142
CC1(C)Cc2ccc(C(=O)O)c(O)c2C(=O)O1 [ALM-72, 8-hydroxy-3,3-dimethyl-1-oxo-isochroman-7-carboxylic acid] | – | – | – | – | – | > 846 | > 846 | > 846 | > 846
C[C@@H]1Cc2cccc(O)c2C(=O)O1 [ALM-11, (3R)-mellein] | – | – | – | – | – | 961 | 428 | 961 | > 960
